This note sets out measurements from patent US7592143B2, “Methods of treating diseases responsive to induction of apoptosis and screening assays” (Cytovia, Inc., priority 2003, dated 2009).

One assay has as its target Transferrin Receptors (Homo sapiens, UniProt P02786). The experiment in a line: Transferrin receptor binding assay of small molecules: inhibition of biotin-GA binding. The conditions noted are these: 0.75 h; Compounds tested at 20 μM; biotin-GA kept at 1 μM. As to the method:
The assay was run similar as described in Example 38. Wells of a 96-well assay plate were coated with 500 ng of HTR in 100 μl of PBS per well overnight at 4° C. These were washed twice with 200 μl of PBS and incubated with 200 μl of 1% BSA solution in PBS and washed twice with 200 μl of PBS. 100 μl of 1 μM biotin-GA solution in binding buffer (PBS/0.1% BSA/0.1% Tween-20) was added per well and incubated for 45 minutes at room temperature. For competition of binding assays biotin-GA was pre-mixed with indicated compounds at various concentrations. Final concentration of DMSO in binding mixtures was adjusted to 1% v/v. Wells were washed 4 times with 200 μl of binding buffer. 100 μl of 100 ng/ml Eu-labeled streptavidin solution in binding buffer were added per well and incubated for 45 minutes at room temperature. Wells were washed twice with 200 μl of binding buffer and twice with 200 μl of PBS. 100 μl of DELFIA Enhancement Solution were added per well and incubated for 10 minutes at room temperature. Plates were read on a Wallac Victor plate reader (Wallac-PerkinElmer Life Sciences) using delayed fluorescence Eu protocol at default manufacturer's settings.
Coated wells with no competing agent added were used to determine total binding (T). Non-coated wells were used to determine background binding (B). Background binding was consistently lower than 20%. Inhibition of binding was calculated as I=(T−BC)/(T−B)*100%, where BC was a reading corresponding to a well with a competing compound C added.
Other controls included assays of Biotin-GA binding to the wells coated with 500 μg/well of BSA or mouse Immunoglobulin G, the secondary reagent (Eu-labeled streptavidin) alone binding to the wells coated with […].

The subject of a further assay is T-47D. In words: Caspase cascade activation and induction of apoptosis in solid tumor cells. The format is cell-based, Human. As to conditions: 48 h incubation; for Caspase activity (Ratio): ratio of net RFU of test compound to control; for EC50: Homo sapiens, T47D, read-out: Caspase potency EC50; for EC50 / Caspase potency EC50 (nM): 0.016 to 10 μM. As to the method: Human breast cancer cell lines T-47D and DLD-1 were grown according to media component mixtures designated by American Type Culture Collection +10% FCS (Invitrogen Corporation), in a 5% CO2-95% humidity incubator at 37° C. T-47D and DLD-1 cells were maintained at a cell density between 50 and 80% confluency at a cell density of 0.1 to 0.6×10^6 cells/mL. Cells were harvested at 600×g and resuspended at 0.65×10^6 cells/mL into appropriate media +10% FCS. An aliquot of 22.5 μL of cells was added to a well of a 384-well microtiter plate containing 2.5 μL of a 10% DMSO in RPMI-1640 media solution containing 0.16 to 100 μM of test compound (0.016 to 10 μM final). An aliquot of 22.5 μL of cells was added to a well of a 384-well microtiter plate containing 2.5 μL of a 10% DMSO in RPMI-1640 media solution without test compound as the control sample. The samples were mixed by agitation and then incubated at 37° C. for 48 h in a 5% CO2-95% humidity incubator. After incubation, the samples were removed from the incubator and 25 μL of a solution containing 14 μM of N-(Ac-DEVD)-N′-ethoxycarbonyl-R110 (SEQ ID NO.: 41) fluorogenic substrate (Cytovia, Inc.; WO99/18856), 20% sucrose (Sigma), 20 mM DTT (Sigma), 200 mM NaCl (Sigma), 40 mM Na PIPES buffer pH 7.2 (Sigma), and 500 μg/mL lysolecithin (Calbiochem) was added. The samples were mixed by agitation and incubated at room temperature. Using a fluorescent plate reader (Model SPECTRAfluor Plus, Tecan), an initial reading (T=0) was made approximately 1-2 min after addition of the substrate solution, employing excitation at 485 nm and emission at 530 nm, to determine the background fluorescence of the control sample. After the 3 h incubation, the samples were read for fluorescence as above (T=3 h).
The Relative Fluorescence Unit values (RFU) were used to calculate the sample readings as follows: RFU(T=3h)−Control RFU(T=0)=Net RFU(T=3h)
The activity of caspase cascade activation was determined by the ratio of the net RFU value for test compound to that of control samples. The EC50 (nM) was determined by a sigmoidal dose-response calculation (Prism 3.0, GraphPad Software Inc.).

For assay [1], the target named is T1, soluble human transferrin receptor (shTR) (Homo sapiens, UniProt P02786).
T1 construct: soluble human transferrin receptor (shTR); purchased Merck Biosciences, Schwalbach, Germany
In words: Biotin-GA binding to plates coated with soluble human transferrin receptor, Eu-streptavidin detection. As to the method: FIG. 1A. […] 96-well plates were coated with soluble human transferrin receptor (shTR) (SEQ ID NO. 1) at 375 ng/well and blocked with Bovine Serum Albumin (BSA). Wells were incubated with increasing concentrations of biotin-GA in binding/washing buffer for 20 min at 30° C. Eu-streptavidin was used for the detection. Amounts of bound Eu-Streptavidin were quantified by measuring time-delayed fluorescence. Confirmed in three independent experiments.
FIG. 1C. […] Separate control wells were probed with biotinylated holo-transferrin (bio-Trn) to control for TR retention and possible denaturation over long incubation times. Independently confirmed in three experiments.
FIG. 1D. […] Binding of Biotin-GA and tritium-GA to Jurkat cells (hatched) or in-vitro TfR-binding (solid) in the presence of 1 μM GA, 50 μg/ml of apo-transferrin or 50 μg/ml of holo-transferrin is shown in this graph. […]
96-well plates were coated with soluble human transferrin receptor (shTR) (Merck Biosciences, Schwalbach, Germany) at 375 ng/well and blocked with Bovine Serum Albumin (BSA). […] Amounts of bound Eu-Streptavidin were quantified after incubation with Enhancement Solution (Perkin-Elmer, Wellesey, Mass.) by measuring time-delayed fluorescence on a Wallac Victor plate reader (Perkin-Elmer, Wellesey, Mass.) according to manufacturer's protocol. […] Kd and competition EC50 values were calculated using PRIZM software. […]

Another assay deals with T47D cells. The experiment in a line: Transferrin receptor internalization, FITC anti-transferrin receptor immunofluorescence. The format is cell-based, human. As to conditions: 2 μM GA for 10 or 30 min. As to the method: FIG. 2A. […] T47D cells were treated with DMSO or 2 μM GA for 10 min (panels A and C respectively) and DMSO or 2 μM GA for 30 min (panels B and D, respectively) and further treated with FITC conjugated anti-transferrin receptor for 30 mins at 37° C. The cells were then fixed with methanol at −20° C. for 5 min, washed with PBS and mounted with Vectashield mounting medium. Representative of three independently confirmed experiments.
For detecting internalization of fluorescent transferrin receptor, T47D cells were plated on glass cover slips in a 6-well plate at a density of 3×10^5 cells per well on the day before the experiment. Cells were pretreated with 2 μM GA for 10 min at 37° C. washed with PBS, and then labeled for 30 min with 1 μg/ml FITC-labeled mouse anti-human transferrin receptor (RDI, Flanders, N.J.) at 37° C. The cells were then fixed with methanol at −20° C. for 5 min, washed with PBS and mounted with Vectashield mounting medium (Hard set with DAPI, Vector Laboratories, Inc., Burlingame, Calif.).

The next assay concerns Jurkat cells. In words: Cell surface transferrin receptor expression by FACS. The format is cell-based. The conditions noted are these: 5 μM GA for 5 min. As to the method:
FIG. 2B. […] Jurkat cells were treated with holo-transferrin (50 μg/ml) or GA (5 μM) alone for 5 min or pretreat for 5 min with holo-transferrin followed by 5 min GA (5 μM) treatment. Cells were then stained with FITC-conjugated anti-transferrin receptor antibody for 30 minutes at 4° C. After washing, cells were analyzed on a Becton Dickinson FACS Calibur. Data is shown as mean flourescence units (mfu). Confirmed in three independent experiments.
FACS Analysis: For cell surface staining of transferrin receptor, cells were washed with PBS+1% BSA and stained with FITC-conjugated anti-transferrin receptor antibody (RDI, Flanders, N.J.) for 30 minutes at 4° C. After washing, cells were analyzed on a FACS Calibur (BD Biosciences, San Jose, Calif.) using Cellquest software.

Each structure is given as a SMILES string.

Transferrin Receptors, sequence (P02786 whole entry): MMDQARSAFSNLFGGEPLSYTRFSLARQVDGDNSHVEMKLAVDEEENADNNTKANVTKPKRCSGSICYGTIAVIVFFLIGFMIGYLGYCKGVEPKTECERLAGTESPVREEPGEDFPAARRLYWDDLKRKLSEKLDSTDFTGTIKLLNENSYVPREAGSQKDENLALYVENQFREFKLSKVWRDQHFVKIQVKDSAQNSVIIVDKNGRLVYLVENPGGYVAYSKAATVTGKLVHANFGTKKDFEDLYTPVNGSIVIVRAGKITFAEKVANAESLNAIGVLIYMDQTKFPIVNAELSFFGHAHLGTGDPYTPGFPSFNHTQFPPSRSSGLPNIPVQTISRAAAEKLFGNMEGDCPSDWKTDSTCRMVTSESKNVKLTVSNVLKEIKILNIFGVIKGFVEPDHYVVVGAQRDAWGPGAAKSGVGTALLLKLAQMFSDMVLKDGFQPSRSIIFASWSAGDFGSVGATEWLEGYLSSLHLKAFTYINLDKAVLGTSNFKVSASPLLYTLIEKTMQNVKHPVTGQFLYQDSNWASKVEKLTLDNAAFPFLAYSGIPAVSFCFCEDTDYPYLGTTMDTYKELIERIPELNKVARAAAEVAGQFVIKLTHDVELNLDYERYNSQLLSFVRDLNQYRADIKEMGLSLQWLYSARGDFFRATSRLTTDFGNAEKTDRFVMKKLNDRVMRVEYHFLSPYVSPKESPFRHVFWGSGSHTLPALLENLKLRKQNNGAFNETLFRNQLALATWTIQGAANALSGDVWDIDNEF
T1 sequence (P02786 101-760 limits assumed): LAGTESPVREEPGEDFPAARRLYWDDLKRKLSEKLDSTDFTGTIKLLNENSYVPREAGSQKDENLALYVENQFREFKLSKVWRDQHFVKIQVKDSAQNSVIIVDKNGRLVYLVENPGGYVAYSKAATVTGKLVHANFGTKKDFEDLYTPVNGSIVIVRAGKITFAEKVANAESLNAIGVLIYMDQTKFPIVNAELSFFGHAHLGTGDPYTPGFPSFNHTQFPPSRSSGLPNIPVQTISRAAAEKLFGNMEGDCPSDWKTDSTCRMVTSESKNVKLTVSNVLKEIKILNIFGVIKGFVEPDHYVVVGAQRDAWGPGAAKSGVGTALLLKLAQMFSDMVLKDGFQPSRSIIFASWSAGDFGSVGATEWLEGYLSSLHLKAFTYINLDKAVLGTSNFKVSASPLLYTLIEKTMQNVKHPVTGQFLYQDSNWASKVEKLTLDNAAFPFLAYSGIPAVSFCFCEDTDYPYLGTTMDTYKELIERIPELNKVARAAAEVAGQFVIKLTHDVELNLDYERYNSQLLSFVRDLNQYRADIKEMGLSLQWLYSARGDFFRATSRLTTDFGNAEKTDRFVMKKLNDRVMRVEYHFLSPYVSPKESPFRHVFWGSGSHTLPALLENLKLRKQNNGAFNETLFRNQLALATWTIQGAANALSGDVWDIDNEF

What is called inhibition is the percentage by which the read-out fell short of the control. A high value points to a response far below the control. Broadly, the EC50 is the concentration that produces a half-maximal response. `CC(C)=CCC12OC(C)(C)C3CC4(OC(c5ccccc5)=CC(=O)C4=CC31)C2=O` (stereo not shown) [Example 32, 1-(3-Methyl-2-butenyl)-3,3-dimethyl-1,3,3 a,4,4a,9a-hexahydro-8,10-dioxo-6-phenyl-1,4a-methano-furo[3,4-g]chromene] displayed an inhibition at 20 µM at Transferrin Receptors of 61%. For the same compound, in the assay with T-47D, the “Caspase activity (Ratio)” value turned out to be 10.6 and the EC50 is 3.09 µM.

`CC(C)=CCC[C@]1(C)C=Cc2c(O)c3c(c(CC=C(C)C)c2O1)O[C@]12C(=C[C@@H]4C[C@H]1C(C)(C)O[C@@]2(C/C=C(/C)C(=O)O)C4=O)C3=O` [GA, Gambogic acid]: the “Binding to transferrin receptor in vitro (in words)” value in assay [1] (shTR 375 ng/well, increasing concentrations of biotin-GA) is given as “binds transferrin receptor in vitro”. Besides, the “Displacement of receptor-bound GA (in words)” value in assay [1] (shTR-coated wells incubated with biotin-GA, washed, then incubated with GA) is “can be displaced by active GA derivatives”. Besides, the “Transferrin receptor internalization (in words)” value with T47D cells is recorded as “interferes with receptor internalization”. Further, in the assay on Jurkat cells, the “Transferrin receptor internalization by cell surface receptor expression (in words)” value is reported as “interferes with transferrin receptor (SEQ ID NO. 1) internalization”.

For the compound `CC(C)=CCC12OC(C)(C)C3CC(C=C4C(=O)C=C(c5ccccc5)OC431)C2=O` (stereo not shown) [Example 31, 1-(3-Methyl-2-butenyl)-3,3-dimethyl-1,3,3a,4,5,10a-hexahydro-7,11-dioxo-9-phenyl-1,5-methano-furo[3,4-i]chromene], 20 µM produced 47% inhibition on Transferrin Receptors. Further, in the assay with T-47D, the “Caspase activity (Ratio)” value is reported as 11.4 and the EC50 came to 3.85 µM.

`C=CCC12OCC3CC(CC4C(=O)c5ccccc5OC341)C2=O` (stereo not shown) [Example 19, 1-allyl-1,3,3a,4,5,6,6a,12a-octahydro-7,13-dioxo-1,5-methano-furo[3,4-d]xanthene]: testing at 20 µM on Transferrin Receptors gave an inhibition of 0%. Also, in the assay with T-47D, the “Caspase potency EC50 (nM)” value is recorded as “Inactive” and the “Caspase activity (Ratio)” value was determined as 1.0.

Regarding `CC(C)=CCC12OC(C)(C)C3CC4(Oc5ccccc5C(=O)C4=CC31)C2=O` (stereo not shown) [Example 23, 1-(3-Methyl-2-butenyl)-3,3-dimethyl-1,3,3a,4,4a,11a-hexahydro-10,12-dioxo-1,4a-methano-furo[3,4-b]xanthene], testing at 20 µM on Transferrin Receptors gave an inhibition of 59%. Besides, in the assay with T-47D, the “Caspase activity (Ratio)” value was found to be 14.1 and the EC50 was 3.73 µM.

The compound `C=CCC12OCC3CC4(Oc5ccccc5C(=O)C4=CC31)C2=O` (stereo not shown) [Example 18, 1-Allyl-1,3,3a,4,4a,11a-hexahydro-10,12-dioxo-1,4a-methano-furo[3,4-b]xanthene] gave an inhibition at 20 µM at Transferrin Receptors of 42%. In the assay with T-47D, the “Caspase activity (Ratio)” value is given as 2.9 and the EC50 came to 6.6 µM.

The compound `C=CCC12OCC3CC(C=C4C(=O)c5ccccc5OC431)C2=O` (stereo not shown) [Example 17, 1-Allyl-1,3,3a,4,5,12a-hexahydro-7,13-dioxo-1,5-methano-furo[3,4-d]xanthene] returned an inhibition at 20 µM on Transferrin Receptors of 52%. In addition, in the assay with T-47D, the “Caspase activity (Ratio)” value is 9.8 and the 50% effective concentration (EC50) stood at 8.38 µM.

`CC(C)=CCC12OC(C)(C)C3CC(C=C4C(=O)c5ccccc5OC431)C2=O` (stereo not shown) [Example 22, 1-(3-Methyl-2-butenyl)-3,3-dimethyl-1,3,3a,4,5,12a-hexahydro-7,13-dioxo-1,5-methano-furo[3,4-d]xanthene] displayed an inhibition at 20 µM on Transferrin Receptors of 51%. For the same compound, in the assay with T-47D, the “Caspase activity (Ratio)” value is listed as 9.9 and the EC50 amounted to 4.02 µM.

Take `C=CCC12CC3COC(CC=C)(C1=O)C3(CC=C)C=C2C(=O)c1ccccc1` (stereo not shown) [Example 28, 1,3,7-Triallyl-9-benzoyl-4-oxa-tricyclo[4.3.1.0^3,7]dec-8-en-2-one]: at Transferrin Receptors, at 20 µM the inhibition was 8%. In addition, in the assay with T-47D, the “Caspase potency EC50 (nM)” value is “Inactive” and the “Caspase activity (Ratio)” value came out at 1.3.

On to `C=CCC12C=C(C(=O)c3ccccc3)C3(CC=C)C(COC3(CC=C)C1=O)C2` (stereo not shown) [Example 27, 1,3,7-Triallyl-8-benzoyl-4-oxa-tricyclo[4.3.1.0^3,7]dec-8-en-2-one], for which, on Transferrin Receptors, 20 µM produced 11% inhibition. In the assay with T-47D, the “Caspase potency EC50 (nM)” value is on record as “Inactive” and the “Caspase activity (Ratio)” value is on record as 1.5.
